Holding throughout (assay type): in vivo, human
Experiment [1] is described as follows: Cooling intensity: panelists taste aqueous solutions, compared with menthol at 2 ppm. The conditions noted are these: tasted by small group of panelists.
Experiment [2] is described as follows: Application in toothpaste: cooling perception after brushing. The settings on record: for Cooling sensation felt by the panelist in all areas of the mouth: opaque toothgel with 0.50 g peppermint oil and 0.30 g saccharin, teeth brushed, mouth rinsed; for Cooling sensation felt by the panelist in all areas of the mouth / Duration of cooling perception: test compound 0.05 g per 100 g; for Cooling perception rating versus control: toothgel with 0.05 g compound plus 0.50 g peppermint oil versus peppermint oil control; for Duration of cooling perception: toothgel, 0.50 g peppermint oil. On the procedure:
The chemicals are mixed in the toothgel, a piece of toothgel is put on a toothbrush and a panelist's teeth are brushed. The mouth is rinsed with water and the water is spat out. […] The cooling perception lasts for 40 minutes.
The chemicals are mixed in the toothgel, a piece of toothgel is put on a toothbrush and a panelist's teeth are brushed. The mouth is rinsed with water and the water is spat out.

Experiment [3] is described as follows: Application in chewing gum: cooling perception after chewing. The settings on record: for Cooling perception rated higher than the control: chewing gum with 0.05 g compound plus 0.50 g peppermint oil versus peppermint oil control; for Cooling sensation felt by the panelist in all areas of the mouth: chewing gum with 0.50 g peppermint oil; for Cooling sensation felt by the panelist in all areas of the mouth / Duration of cooling perception: test compound 0.05 g, 2 g piece chewed 20 min; for Duration of cooling perception: chewing gum, 0.50 g peppermint oil. As to the method:
The gum base and half of the sorbitol were mixed, maltitol syrup was added and the mixed with the gum mass. The rest of powder (rest of sorbitol, mannitol, potassium acesulfame, aspartame) were added and mixed for about 1 minute, when glycerine was added and the gum mass was mix for about 5 minutes, to form the blank chewing gum mass. Peppermint oil was worked into the mass and a piece of the resulting gum (2 g) is chewed by the panelist for 20 min and spat out. […] The cooling perception lasts for 50 minutes.
The chemical and peppermint oil was worked into the blank chewing gum mass from Example 12 a) and a piece of the resulting gum (2 g) is chewed by the panelist for 20 minutes and spat out.
The chemical and peppermint oil was worked into the blank chewing gum mass from Example 12a) and a piece of the resulting gum (2 g) is chewed by the panelist for 20 minutes and spat out.

On to `CC(C)C(C)(C(=O)CCCc1ccccc1)C(C)C` [Example 4, 5-isopropyl-5,6-dimethyl-1-phenylheptan-4-one], for which the “Concentration with cooling intensity similar to or slightly higher than a solution of menthol at 2 ppm” value (“Concentration” for short) in experiment [1] worked out at 3.0 ppm.
In the case of `CC(C)[C@@H]1CC[C@@H](C)C[C@H]1O` [l-Menthol, reference compound], the “Concentration” value in experiment [1] was 2.0 ppm.
Consider `CC(C)[C@@H]1CC[C@@H](C)C[C@H]1C(=O)CCCc1ccccn1` [Example 3, 1-((1R,2S,5R)-2-isopropyl-5-methylcyclohexyl)-4-(pyridin-2-yl)butan-1-one], for which, in experiment [1], the “Concentration” value stood at 0.01 ppm.
The same measure, in the same setting: for `CCNC(=O)C1CC(C)CCC1C(C)C` (stereo not drawn) [WS-3, N-ethyl p-menthanecarboxamide, reference compound] the value was 1.5 ppm.
For the compound `CCCC(=O)[C@@H]1C[C@H](C)CC[C@H]1C(C)C` [Example 1, 1-((1R,2S,5R)-2-isopropyl-5-methylcyclohexyl)butan-1-one], in experiment [1], the “Concentration” value amounted to 2.0 ppm. Moreover, in experiment [2], the “Cooling sensation felt by the panelist in all areas of the mouth” value (“Cooling sensation felt by the panelist” below) was “intense cooling sensation”, the “Cooling perception rating versus control” value is listed as “higher then the control” and the “Duration of cooling perception” value amounted to 72 min. For the same compound, in experiment [3], the “Cooling perception rated higher than the control” value is reported as 49%, the “Cooling sensation felt by the panelist” value is “cooling sensation” and the “Duration of cooling perception” value was “over 60 minutes”.
Take `CC(C)[C@@H]1CC[C@@H](C)C[C@H]1C(=O)CCCc1ccccc1` [Example 2, 1-((1R,2S,5R)-2-isopropyl-5-methylcyclohexyl)-4-phenylbutan-1-one]: the “Concentration” value in experiment [1] came out at 2.0 ppm. For the same compound, in experiment [2], the “Cooling sensation felt by the panelist” value is listed as “intense cooling sensation”, the “Cooling perception rating versus control” value is “higher then the control” and the “Duration of cooling perception” value worked out at 70 min. Also, in experiment [3], the “Cooling perception rated higher than the control” value is 49%, the “Cooling sensation felt by the panelist” value is given as “cooling sensation” and the “Duration of cooling perception” value is listed as “over 60 minutes”.

For the origin of these results see patent US7935848B2, “Butone derivatives useful as cooling agents” (Givaudan S.A., priority 2007, dated 2011).
